From patent publication US20150284335A1, “Benzoimidazoles as prolyl hydroxylase inhibitors” (Janssen Pharmaceutica NV, priority 2008, published 2015)
Marks after values point to notes of the source that are not given here.

Experiments:
[1] = biological target: T1, PHD2181-417 (Homo sapiens, UniProt Q9GZT9); experiment: PHD enzyme activity assay ([14C]-succinic acid production); type: biochemical; conditions: inhibition of PHD2181-417 activity; HIF-1α peptide 10 μM, [5-14C]-2-oxoglutaric acid, 10 minutes; read-out: Enzyme pIC50 (converted);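 also: enzyme expressed in E. coli BL21, assayed in Tris-HCl pH 7.5 with catalase, DTT and ascorbate, [14C]-succinic acid beta-counted after DNP precipitation of residual 2-oxoglutarate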
T1 construct: histidine tag (N, cleaved yes); Smt3 (SUMO) tag (N, cleaved yes); made in house; host or cells: E. coli BL21 (pBAD vector)

[2] = test system: Hep-3B cells; experiment: Cellular assay: EPO secretion in Hep-3B cells; type: cell-based, human; conditions: 24 hours, percent of EPO secretion relative to assay control compound
[3] = final compound concentration 100 μM

T1 sequence (Q9GZT9 181-417): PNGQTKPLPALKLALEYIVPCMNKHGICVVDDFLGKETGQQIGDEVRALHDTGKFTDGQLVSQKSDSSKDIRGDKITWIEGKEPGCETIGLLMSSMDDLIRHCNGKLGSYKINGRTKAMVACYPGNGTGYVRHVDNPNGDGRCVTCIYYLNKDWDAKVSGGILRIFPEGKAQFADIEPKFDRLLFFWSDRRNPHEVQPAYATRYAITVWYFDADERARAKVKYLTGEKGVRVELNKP

With `C[C@H](NC(=O)c1nc2ccccc2[nH]1)C(=O)O` [Example 2, (S)-2-[(1H-Benzoimidazole-2-carbonyl)-amino]-propionic acid] the IC50 [1] was 39.8 µM and the “Cellular % EPO Stimulation” value [2, 3] was 66.03%.

`O=C(O)c1cnn(-c2nc3cc(-c4cccc(OCc5ccccc5)c4)ccc3[nH]2)c1` [Example 46, 1-[5-(3-Benzyloxy-phenyl)-1H-benzoimidazol-2-yl]-1H-pyrazole-4-carboxylic acid] was tested, and the IC50 [1] was 0.0501 µM.

`O=C(O)c1cnn(-c2nc3cc(-c4ccc(Cl)c(Cl)c4)ccc3[nH]2)c1` [Example 49, 1-[5-(3,4-Dichloro-phenyl)-1H-benzoimidazol-2-yl]-1H-pyrazole-4-carboxylic acid] gave an IC50 [1] of 0.0794 µM.

For `O=C(O)CNC(=O)c1nc2cc(-c3cc(C(=O)NCc4ccccc4)ccc3F)ccc2[nH]1` [Example 24, {[5-(5-Benzylcarbamoyl-2-fluoro-phenyl)-1H-benzoimidazole-2-carbonyl]-amino}-acetic acid], the IC50 [1] was 15.8 µM and the “Cellular % EPO Stimulation” value [2, 3] was 13.56%.

In the case of `O=C(O)CNC(=O)c1nc2cc(-c3cccc(OCc4ccccc4Cl)c3)ccc2[nH]1` [Example 14, ({5-[3-(2-Chloro-benzyloxy)-phenyl]-1H-benzoimidazole-2-carbonyl}-amino)-acetic acid], the IC50 [1] is reported as 2.51 µM and the “Cellular % EPO Stimulation” value [2, 3] is reported as −3.80%.

In the case of `Cc1cc(-c2ccc3[nH]c(C(=O)NCC(=O)O)nc3c2)ccc1Cl` [Example 27, {[5-(4-Chloro-3-methyl-phenyl)-1H-benzoimidazole-2-carbonyl]-amino}-acetic acid], the IC50 [1] is reported as 39.8 µM and the “Cellular % EPO Stimulation” value [2, 3] is reported as −0.70%.

`O=C(O)c1cnn(-c2nc3cc(-c4ccc(O)cc4)ccc3[nH]2)c1` [Example 59, 1-[5-(4-Hydroxy-phenyl)-1H-benzoimidazol-2-yl]-1H-pyrazole-4-carboxylic acid] gave an IC50 [1] of 0.251 µM.

`O=C(O)c1cnn(-c2nc3cc(-c4cccc(C(F)(F)F)c4)ccc3[nH]2)c1` [Example 48, 1-[5-(3-Trifluoromethyl-phenyl)-1H-benzoimidazol-2-yl]-1H-pyrazole-4-carboxylic acid] was tested, and the IC50 [1] was 0.0794 µM.

`O=C(O)CNC(=O)c1nc2cc(-c3ccc(Oc4ccccc4)cc3)ccc2[nH]1` [Example 18, {[5-(4-Phenoxy-phenyl)-1H-benzoimidazole-2-carbonyl]-amino}-acetic acid] was tested, and the IC50 [1] was 7.94 µM and the “Cellular % EPO Stimulation” value [2, 3] was 2.00%.

In the case of `O=C(O)CNC(=O)c1nc2ccc(NS(=O)(=O)c3ccccc3)cc2[nH]1` [Example 30, [(6-Benzenesulfonylamino-1H-benzoimidazole-2-carbonyl)-amino]-acetic acid], the IC50 [1] is reported as 31.6 µM and the “Cellular % EPO Stimulation” value [2, 3] is reported as 1.10%.

In the case of `O=C(O)CNC(=O)c1nc2cc(-c3cccc(OCc4cccc(F)c4)c3)ccc2[nH]1` [Example 16, ({5-[3-(3-Fluoro-benzyloxy)-phenyl]-1H-benzoimidazole-2-carbonyl}-amino)-acetic acid], the IC50 [1] is reported as 2.51 µM and the “Cellular % EPO Stimulation” value [2, 3] is reported as 2.10%.

`COc1cc2nc(-n3cc(C(=O)O)cn3)[nH]c2cc1OC` [Example 40, 1-(5,6-Dimethoxy-1H-benzoimidazol-2-yl)-1H-pyrazole-4-carboxylic acid] was tested, and the IC50 [1] was 0.398 µM.

For `O=C(O)CNC(=O)c1nc2cc(-c3ccc(OCc4cccc(Cl)c4)c(Cl)c3)ccc2[nH]1` [Example 21, ({5-[3-Chloro-4-(3-chloro-benzyloxy)phenyl]-1H-benzoimidazole-2-carbonyl}-amino)-acetic acid], the IC50 [1] was 7.94 µM and the “Cellular % EPO Stimulation” value [2, 3] was −1.43%.

`C[C@@H](NC(=O)c1nc2cc(C(F)(F)F)cc(C(F)(F)F)c2[nH]1)C(=O)O` [Example 52, (R)-2-[(5,7-Bis-trifluoromethyl-1H-benzoimidazole-2-carbonyl)-amino]-propionic acid] was tested, and the “Cellular % EPO Stimulation” value [2, 3] was 17.80%.

Work on `Cc1ccc2[nH]c(-n3cc(C(=O)O)cn3)nc2c1C` [Example 41, 1-(4,5-Dimethyl-1H-benzoimidazol-2-yl)-1H-pyrazole-4-carboxylic acid] yielded an IC50 [1] of 7.94 µM.

With `O=C(O)c1cnn(-c2nc3cc(C(F)(F)F)ccc3[nH]2)c1` [Example 34, 1-(5-Trifluoromethyl-1H-benzoimidazol-2-yl)-1H-pyrazole-4-carboxylic acid] the IC50 [1] was 0.251 µM and the “Cellular % EPO Stimulation” value [2, 3] was 127.80%.

For `O=C(O)CNC(=O)c1nc2cc(-c3ccc4ccccc4c3)ccc2[nH]1` [Example 25, [(5-Naphthalen-2-yl-1H-benzoimidazole-2-carbonyl)-amino]-acetic acid], the IC50 [1] was 12.6 µM and the “Cellular % EPO Stimulation” value [2, 3] was 2.10%.

For `O=C(NC(CO)C(=O)O)c1nc2ccccc2[nH]1` (stereo in doubt) [Example 51, (R)-2-[(1H-Benzoimidazole-2-carbonyl)-amino]-3-hydroxy-propionic acid], the IC50 [1] was 20 µM and the “Cellular % EPO Stimulation” value ([2]; final compound concentration of 10 μM) was 0.73* %.

With `O=C(O)CNC(=O)c1nc2ccccc2[nH]1` [Example 1, [(1H-Benzoimidazole-2-carbonyl)-amino]-acetic acid] the “Cellular % EPO Stimulation” value [2, 3] was 23.9%.

With `C[C@@H](NC(=O)c1nc2ccc(F)cc2[nH]1)C(=O)O` [Example 11, (R)-2-[(6-Fluoro-1H-benzoimidazole-2-carbonyl)-amino]-propionic acid] the IC50 [1] was 79.4 µM and the “Cellular % EPO Stimulation” value [2, 3] was 23.93%.

Compound `O=C(O)c1cnn(-c2nc3cc(Cl)ccc3[nH]2)c1` [Example 61, 1-(5-Chloro-1H-benzoimidazol-2-yl)-1H-pyrazole-4-carboxylic acid] has an IC50 [1] of 0.501 µM.

For `O=C(O)CNC(=O)c1nc2ccc(NCc3ccccc3)cc2[nH]1` [Example 31, [(6-Benzylamino-1H-benzoimidazole-2-carbonyl)-amino]-acetic acid], the IC50 [1] was 5.01 µM and the “Cellular % EPO Stimulation” value [2, 3] was 1.40%.

`C[C@H](NC(=O)c1nc2ccc(F)cc2[nH]1)C(=O)O` [Example 10, (S)-2-[(6-Fluoro-1H-benzoimidazole-2-carbonyl)-amino]-propionic acid] was tested, and the IC50 [1] was greater than 100 µM and the “Cellular % EPO Stimulation” value [2, 3] was 14.74%.

Work on `Cc1nn(-c2nc3cc(Cl)c(Cl)cc3[nH]2)c(C)c1C(=O)O` [Example 58, 1-(5,6-Dichloro-1H-benzoimidazol-2-yl)-3,5-dimethyl-1H-pyrazole-4-carboxylic acid] yielded an IC50 [1] greater than 10 µM.

With `O=C(O)c1cn(-c2nc3cc(Br)ccc3[nH]2)nc1C(F)(F)F` [Example 55, 1-(5-Bromo-1H-benzoimidazol-2-yl)-3-trifluoromethyl-1H-pyrazole-4-carboxylic acid] the IC50 [1] was greater than 100 µM.

With `O=C(O)CNC(=O)c1nc2cc(I)ccc2[nH]1` [Example 8, [(5-Iodo-1H-benzoimidazole-2-carbonyl)-amino]-acetic acid] the IC50 [1] was 39.8 µM and the “Cellular % EPO Stimulation” value [2, 3] was 3.80%.

In the case of `CCCOc1ccc(-c2ccc3[nH]c(C(=O)NCC(=O)O)nc3c2)cc1` [Example 26, {[5-(4-Propoxy-phenyl)-1H-benzoimidazole-2-carbonyl]-amino}-acetic acid], the IC50 [1] is reported as 15.8 µM and the “Cellular % EPO Stimulation” value [2, 3] is reported as 2.50%.

Work on `O=C(O)c1cnn(-c2nc3cc(-c4cccc(O)c4)ccc3[nH]2)c1` [Example 60, 1-[5-(3-Hydroxy-phenyl)-1H-benzoimidazol-2-yl]-1H-pyrazole-4-carboxylic acid] yielded an IC50 [1] of 0.316 µM.

In the case of `Cc1c(Br)cc2nc(-n3cc(C(=O)O)cn3)[nH]c2c1C` [Example 62, 1-(5-Bromo-6,7-dimethyl-1H-benzoimidazol-2-yl)-1H-pyrazole-4-carboxylic acid], the IC50 [1] is reported as 0.398 µM.

With `Cc1nn(-c2nc3cc(Br)ccc3[nH]2)c(C)c1C(=O)O` [Example 57, 1-(5-Bromo-1H-benzoimidazol-2-yl)-3,5-dimethyl-1H-pyrazole-4-carboxylic acid] the IC50 [1] was 63.1 µM.

In the case of `O=C(O)CNC(=O)c1nc2cc(C(F)(F)F)cc(C(F)(F)F)c2[nH]1` [Example 6, [(5,7-Bis-trifluoromethyl-1H-benzoimidazole-2-carbonyl)-amino]-acetic acid], the “Cellular % EPO Stimulation” value [2, 3] is reported as 4.20%.

With `Cc1cc2nc(-n3cc(C(=O)O)cn3)[nH]c2cc1C` [Example 36, 1-(5,6-Dimethyl-1H-benzoimidazol-2-yl)-1H-pyrazole-4-carboxylic acid] the IC50 [1] was 0.794 µM.

`O=C(O)c1cnn(-c2nc3cc(-c4cccc(OCc5cccc(Cl)c5)c4)ccc3[nH]2)c1` [Example 43, 1-{5-[3-(3-Chloro-benzyloxy)-phenyl]-1H-benzoimidazol-2-yl}-1H-pyrazole-4-carboxylic acid] gave an IC50 [1] of 0.0316 µM.

For `COc1ccc2nc(C(=O)NCC(=O)O)[nH]c2c1` [Example 12, [(6-Methoxy-1H-benzoimidazole-2-carbonyl)-amino]-acetic acid], the “Cellular % EPO Stimulation” value [2, 3] was 0.50%.

With `O=C(O)c1cnn(-c2nc3c(Cl)cc(C(F)(F)F)cc3[nH]2)c1` [Example 39, 1-(4-Chloro-6-trifluoromethyl-1H-benzoimidazol-2-yl)-1H-pyrazole-4-carboxylic acid] the IC50 [1] was 0.158 µM.

`O=C(O)c1cnn(-c2nc3cc(-c4ccc(OCc5ccccc5)cc4)ccc3[nH]2)c1` [Example 47, 1-[5-(4-Benzyloxy-phenyl)-1H-benzoimidazol-2-yl]-1H-pyrazole-4-carboxylic acid] was tested, and the IC50 [1] was 0.2 µM.

Work on `O=C(O)c1cn(-c2nc3cc(Cl)c(Cl)cc3[nH]2)nc1C(F)(F)F` [Example 56, 1-(5,6-dichloro-1H-benzoimidazol-2-yl)-3-trifluoromethyl-1H-pyrazole-4-carboxylic acid] yielded an IC50 [1] greater than 10 µM.

`C[C@H](NC(=O)c1nc2cc(C(F)(F)F)cc(C(F)(F)F)c2[nH]1)C(=O)O` [Example 7, (S)-2-[(5,7-Bis-trifluoromethyl-1H-benzoimidazole-2-carbonyl)-amino]-propionic acid] was tested, and the “Cellular % EPO Stimulation” value [2, 3] was 1.60%.

Work on `O=C(O)c1cnn(-c2nc3cc(-c4cccc(OCc5ccccc5Cl)c4)ccc3[nH]2)c1` [Example 44, 1-{5-[3-(2-Chloro-benzyloxy)-phenyl]-1H-benzoimidazol-2-yl}-1H-pyrazole-4-carboxylic acid] yielded an IC50 [1] of 0.0251 µM.

`O=C(O)CNC(=O)c1nc2ccc(Br)cc2[nH]1` [Example 9, [(6-Bromo-1H-benzoimidazole-2-carbonyl)-amino]-acetic acid] was tested, and the “Cellular % EPO Stimulation” value [2, 3] was 9.80%.
